Results reported in patent publication US20250255847A1, “[…]s: Novel Drugs for Triple Negative Breast Cancer” (SIMMARON RSEARCH INC, priority 2024, published 2025).

Experiments:
TM00096 human TNBC tumor = test: Tumor growth in patient-derived xenograft (PDX) mouse model of TNBC; format: in vivo; details: for tumor growth by infrared 2DG image analysis: 2 mg/Kg Bwt i.p., end of 4th week; for final tumor volume (mean±SD): after 4 weeks (2 weeks dosing 2 mg/Kg Bwt i.p. alternate days + 2 weeks follow-up), vehicle 949.15±769.15; for initial tumor volume (mean±SD): day 0, 2 mg/Kg Bwt i.p. every alternate day for two weeks
Procedure: FIG. 12 illustrates an embodiment of the present invention and illustrates SIM-1 and SIM-2 arrest the growth of human TNBC tumor in patient-derived xenograft mouse model. TM00096 tumor (origin of invasive ductal carcinoma isolated from a person) was seeded in the flank of 6-week-old female SCID mice by Jackson Laboratory and then shipped to our research facility. Once the tumor reached ˜4 mm in size (˜30 mm^3 in volume), n=6 mice/group were treated by vehicle (5% DMSO), SIM-1 and SIM-2 (2 mg/Kg Bwt mixed with 5% DMSO) via i.p. for 2 weeks in every alternate day. The tumor size was monitored accordingly during the treatment and two more weeks after the last dose to evaluate the recurrence. After 4 weeks, Mice received IRDye 800-tagged 2DG (2-deoxy glucose) probe via tail vein and then imaged in infrared scanner. […] Red spots enclosed in a squares are tumor tissue. Other red spots are non-specific organs with high metabolic activity. (B) Tumor size was measured every alternate day for 4 weeks by a digital caliper and then the volume was calculated using the formula 0.5*Length*Width^2. […] (D) Body weight was recorded during the course of the study to monitor the adverse metabolic outcome due to the drug administration. (E) The heart rate was monitored at 0-, 7-, 14-, and 28-days post SIM-1 and SIM-2 treatments by MouseStat Jr console (Kent Scientific) as per the manufacturer's instruction. (F) At the end of the study, the gross motor performance was recorded for n=6 (i) vehicle, (ii) SIM-1-, and (iii) SIM-2-treated mice. […] Gross movement parameters including (G) the total distance traveled, and (H) the average speed were monitored and plotted by scatter histograms (n=6/group; not significant as shown by one-way ANOVA).
Acquisition, housing, and treatment of PDX mice. Grade 3 invasive ductal carcinoma tumor fragments were harvested from a patient, genotyped for ER-, PR-, and Her2low, and were engrafted in the flank region of 6-to-7-week-old female NOD.Cg-Prkdcscid Il2rgtm1Wjl/SzJ mouse. These tumor-bearing mice were commercially purchased from Jackson Laboratories (Cat #TM00096). Since these mice are severely immunocompromised, special housing was required in a barrier room with restricted air flow and sterile foods. All animal studies were performed under an Institutional Animal Care and Use Committee-approved protocol (Study ID #). […] For the treatment, 2 mg/Kg bwt doses of both SIM-1 and SIM-2 were dissolved in 5% DMSO and then administered intraperitoneally every alternate day for two weeks and followed up for additional two weeks. To ensure safety and toxicity, vital health parameters such as body weight, heart rate, and body temperature were recorded every alternate day for one month. Tumor growth was assessed every alternate day for one month by a digital caliper. Tumor volume was estimated by the formula 0.5× (length×width2). The treatment started once the tumor reached 4 mm in size with an approximate volume of ˜30 mm^3. Mice received drugs for two weeks and left untreated for an additional two weeks to monitor the effect of drug withdrawal on the tumor size. On the penultimate day of the study, mice were injected with 100 μL of […] 2DG dye. The next day, mice were euthanized and then imaged in a Li—CoR infrared scanner to measure tumor size. After that, tumor tissues were harvested from the flank, washed in cold PBS, again imaged with a scalebar, and finally preserved in a −80° C. freezer for subsequent analyses such as genetic and immunoassays.
This example provides a representative experiment of the present invention that studies the effects of both SIM-1 and SIM-2 on the regression and growth arrest of tumors in vivo in the PDX mouse model of TNBC. […]

[1] = system: cell cycle genes in TNBC tumors; test: Real-time PCR of cell cycle genes in PDX tumors; format: in vivo, mouse; details: tumor tissue
Procedure: FIG. 13 illustrates an embodiment of the present invention and illustrates the effects of SIM-1 and SIM-2 on the growth arrest of TNBC tumors. […] The higher magnification images were given below. (B) Area of 50 randomly selected cells (10 different images from n=5 mice/group) from three different groups were measured using polygon tool of ImageJ software and then the scatter histogram analysis was performed using GraphPad Prism 10 statistical software package. The significance of mean between groups (***p<0.001 versus control) was calculated by one-way ANOVA analysis (effector: treatment). (C) IHC staining of cell growth marker Ki-67 in vehicle-, SIM-1-, and SIM-2-treated tumors represents the cell growth property of tumor cells. […] Both hematoxylin-ir nuclei (total cells) and Ki-67-ir cells were counted in n=15 images per group, converted in percent scale, and then plotted as scatter histogram. ****p<0.0001 vs. control as derived by one-way ANOVA. (E) IHC staining of cell proliferation marker PCNA in three different groups. (F) Scatter histogram analysis of […] counted from n=15 images per group and then plotted as percent scale. […] (G) A gene array of 84 genes in a validated human breast cancer gene array (RT^2 Profiler™ PCR array; Cat #PAHS-131ZA; Qiagen) was conducted in cDNA samples extracted from TNBC tumors of vehicle, SIM-1- and SIM-2-treated (n=3) groups. The resultant gene expressions were converted in log scale and then compared with the vehicle in (G) SIM-1 and (H) SIM-2 treated groups as shown in scatter plots. […] (I) Validation of gene expressions of CCND1, CCND2, CCNE1, CDK2 genes were performed by real-time PCR analysis. (J) Upregulations of CDKN1A, and CDKN2A in SIM-1- and SIM-2-treated groups were validated by real-time PCR analyses. were Significance of mean calculated by one-way ANOVA resulted […] versus respective vehicle-groups. The results are confirmed after three different experiments.
To assess the histopathological changes in tumor parenchyma, H&E staining of tumor tissue was performed in three different groups (FIG. 13A). The hematoxylin-stained cells appeared with enlarged and densely colored nuclei characteristic of growing and mitotic tumor cells. […] The result was further corroborated with the quantitative analyses of cell size (FIG. 13B). […] To further confirm, we performed a gene array with a validated RNA array kit (Qiagen) of genes that are involved in the growth and proliferation of breast cancer cells. Relative expressions of different genes were summarized by heatmap clusterogram analyses (FIG. 14D).

| Compound | tumor growth by infrared 2DG image analysis (TM00096 human TNBC tumor) | final tumor volume (mean±SD) (TM00096 human TNBC tumor) | initial tumor volume (mean±SD) (TM00096 human TNBC tumor) | expression of CCND1, CCND2, CCNE1 and CDK2 (real-time PCR) [1] | expression of CDKN1A and CDKN2A (real-time PCR) [1] |
| --- | --- | --- | --- | --- | --- |
| CCOC(=O)c1c(NC(C)=O)sc2c(Cl)c(/C=N/O)ccc12 [SIM-2, ethyl 2-acetamido-7-chloro-6-(hydroxyiminomethyl)-1-benzothiophene-3-carboxylate] | significantly arrested the growth | 134.09±41.77 mm^3 | 37.43±7.07 mm^3 | strongly suppressed | significantly induced |
| O=C(O)CCC(=O)NCc1csc2ccc(Cl)cc12 [SIM-1, 4-[(5-chloro-1-benzothiophen-3-yl)methylamino]-4-oxobutanoic acid] | significantly arrested the growth | 126.69±29.98 mm^3 | 37.65±15.41 mm^3 | strongly suppressed | significantly induced |
